IC90 data for nine compounds are collected here from patent publication US10941157B2, “Pesticidal compositions and uses thereof” (Gilead Apollo, LLC, priority 2015, dated 2021).

What all share (type): cell-based
The subject of assay [1] is Phytophthora capsici (Pc). Description: In vitro pathogen growth inhibition assay, Pc. As to conditions: 48 h. Put shortly:
(§1)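 Value reported is the compound concentration reaching ≥90% growth inhibition, from OD readings at 24 and 48 h after blank subtraction, confirmed visually. Inoculum was spores diluted in 17% V8 medium, except Rs, using 1.5 mm mycelial plugs in ¼ PDB; actual compound concentration corrected via OD600.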

Assay [2] deals with Collectotrichum graminicola (Cg). As to the kind of experiment: In vitro pathogen growth inhibition assay, Cg. As to conditions: 48 h. An outline of the steps:
(§2)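 Spores in 17% V8 liquid medium, or 1.5 mm Rs mycelial plugs in ¼ PDB, incubated with compound; final concentration checked by OD600 for precipitation. OD readings at 24 and 48 h, blank-subtracted, plus visual ratings; value is concentration giving ≥90% growth inhibition.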

A further assay concerns Diplodia maydis (Dm). As to the kind of experiment: In vitro pathogen growth inhibition assay, Dm. Particulars: Stenocarpella maydis, 48 h. An outline of the steps:
as §1

The test system of assay [3] is Fusarium virguliforme (Fv). As to the kind of experiment: In vitro pathogen growth inhibition assay, Fv. Put shortly: as §1
The test system of the next assay is Botrtyis cinerea (Bc). Description: In vitro pathogen growth inhibition assay, Bc. As to conditions: 48 h. Put shortly:
as §2

Another assay has as its system Septoria tritici (St). Description: In vitro pathogen growth inhibition assay, St. As to conditions: Zymoseptoria tritici, 48 h. Put shortly:
as §2

A further assay relates to Rhizoctonia solani (Rs). Description: In vitro pathogen growth inhibition assay, Rs (mycelial plugs). As to conditions: Rhizoctonia solani, 48 h. Put shortly:
as §1

Assay [4] deals with Fusarium moniliforme (Fm). Description: In vitro pathogen growth inhibition assay, Fm. Particulars: Fusarium verticillioides. Put shortly: as §2
Where [5] appears, read: ≥90% growth inhibition, 48 hours, vs 2% DMSO control, read-out: Compound Concentration (ppm) sufficient for ≥90% inhibition of Pc.
Setting [6] is: ≥90% growth inhibition, 48 hours, vs 2% DMSO control, read-out: Compound Concentration (ppm) sufficient for ≥90% inhibition of Cg.
Setting [7] is: ≥90% growth inhibition, 48 hours, vs 2% DMSO control, read-out: Compound Concentration (ppm) sufficient for ≥90% inhibition of Dm.
Where [8] appears, read: ≥90% growth inhibition, 48 hours, vs 2% DMSO control, read-out: Compound Concentration (ppm) sufficient for ≥90% inhibition of Fv.
The mark [9] stands for this setting: ≥90% growth inhibition, 48 hours, vs 2% DMSO control, read-out: Compound Concentration (ppm) sufficient for ≥90% inhibition of Bc.
The mark [10] stands for this setting: ≥90% growth inhibition, 48 hours, vs 2% DMSO control, read-out: Compound Concentration (ppm) sufficient for ≥90% inhibition of St.
[11] abbreviates: ≥90% growth inhibition, mycelial plugs, 48 hours, vs 2% DMSO control, read-out: Compound Concentration (ppm) sufficient for ≥90% inhibition of Rs.
Where [12] appears, read: ≥90% growth inhibition, 48 hours, vs 2% DMSO control, read-out: Compound Concentration (ppm) sufficient for ≥90% inhibition of Fm.
The mark [13] stands for this setting: concentration sufficient to ≥90% inhibition of growth, 48 hours vs 2% DMSO control, read-out: Compound Concentration (ppm) for ≥90% inhibition, Pc.
The mark [14] stands for this setting: concentration sufficient to ≥90% inhibition of growth, 48 hours vs 2% DMSO control, read-out: Compound Concentration (ppm) for ≥90% inhibition, Cg.
The mark [15] stands for this setting: concentration sufficient to ≥90% inhibition of growth, 48 hours vs 2% DMSO control, read-out: Compound Concentration (ppm) for ≥90% inhibition, Dm.
[16] abbreviates: concentration sufficient to ≥90% inhibition of growth, 48 hours vs 2% DMSO control, read-out: Compound Concentration (ppm) for ≥90% inhibition, Fv.
Setting [17] is: concentration sufficient to ≥90% inhibition of growth, 48 hours vs 2% DMSO control, read-out: Compound Concentration (ppm) for ≥90% inhibition, Bc.
Where [18] appears, read: concentration sufficient to ≥90% inhibition of growth, 48 hours vs 2% DMSO control, read-out: Compound Concentration (ppm) for ≥90% inhibition, St.
Where [19] appears, read: concentration sufficient to ≥90% inhibition of growth, 48 hours vs 2% DMSO control, read-out: Compound Concentration (ppm) for ≥90% inhibition, Rs.
[20] abbreviates: concentration sufficient to ≥90% inhibition of growth, 48 hours vs 2% DMSO control, read-out: Compound Concentration (ppm) for ≥90% inhibition, Fm.

SMILES strings stand for the structures. Converted amounts (≈) assume the structure as drawn. Like-named read-outs stand apart in the source and are kept apart here. Some results are limits rather than exact numbers.

For the compound `CCOC(=O)c1sc2c(c1C)c(=O)n(C(C)(C)C(N)=O)c(=O)n2C[C@H](OCCO)c1cc(F)ccc1OC` [Compound I-183], the IC90 in assay [1] (setting [5]) is above 50 µg/mL; in assay [2] (setting [6]) it was above 50 µg/mL; in the assay on Diplodia maydis (Dm) (setting [7]) it was above 50 µg/mL; in assay [3] (setting [8]), 50 µg/mL (≈ 90.6 µM); in the assay on Botrtyis cinerea (Bc) (setting [9]) it was 10 µg/mL (≈ 18.1 µM); in the assay with Septoria tritici (St) (setting [10]), above 50 µg/mL. In addition, the IC90 (in the assay with Rhizoctonia solani (Rs) (setting [11]); in assay [4] (setting [12])) was 2 µg/mL (≈ 3.63 µM) throughout.
Regarding `COc1ccc(F)cc1[C@@H](O)Cn1c(=O)n(C(C)(C)C(=O)NC(C)C)c(=O)c2c(C)c(-n3cccn3)sc21` [Compound I-187], the IC90 in assay [1] (setting [5]) was at least 50 µg/mL; in assay [2] (setting [6]), 10 µg/mL (≈ 18.4 µM); in the assay on Diplodia maydis (Dm) (setting [7]), 10 µg/mL (≈ 18.4 µM); in assay [3] (setting [8]), 0.4 µg/mL (≈ 0.736 µM); in the assay on Botrtyis cinerea (Bc) (setting [9]), 2 µg/mL (≈ 3.68 µM); in the assay with Septoria tritici (St) (setting [10]) it was above 50 µg/mL. Besides, the IC90 (in the assay with Rhizoctonia solani (Rs) (setting [11]); in assay [4] (setting [12])) was 0.4 µg/mL (≈ 0.736 µM) in each case.
For `COc1ccc(F)cc1[C@H](Cn1c(=O)n(C(C)(C)C(N)=O)c(=O)c2c(C)c(-n3cccn3)sc21)OCCC#N` [Compound I-190], the IC90 in assay [1] (setting [13]) was above 50 µg/mL; in assay [2] (setting [14]), above 50 µg/mL; with Diplodia maydis (Dm) (setting [15]), above 50 µg/mL; in assay [3] (setting [16]) it was 50 µg/mL (≈ 90.2 µM); in the assay with Botrtyis cinerea (Bc) (setting [17]), 10 µg/mL (≈ 18 µM); in the assay on Septoria tritici (St) (setting [18]) it was above 50 µg/mL. The IC90 (in the assay with Rhizoctonia solani (Rs) (setting [19]); in assay [4] (setting [20])) was 10 µg/mL (≈ 18 µM) throughout.
Turning to `COc1ccc(F)cc1[C@H](Cn1c(=O)n(C(C)(C)C(=O)N2CCCC2)c(=O)c2c(C)c(-n3cccn3)sc21)OCCC#N` [Compound I-194], the IC90 in assay [1] (setting [5]) was above 50 µg/mL; in assay [2] (setting [6]), 50 µg/mL (≈ 82.1 µM); in the assay with Diplodia maydis (Dm) (setting [7]), 50 µg/mL (≈ 82.1 µM); in assay [3] (setting [8]) it was at least 10 µg/mL; in the assay on Botrtyis cinerea (Bc) (setting [9]), 10 µg/mL (≈ 16.4 µM); in the assay with Septoria tritici (St) (setting [10]), above 50 µg/mL. Further, the IC90 with Rhizoctonia solani (Rs) (setting [11]) is 10 µg/mL (≈ 16.4 µM); in assay [4] (setting [12]), 2 µg/mL (≈ 3.29 µM).
On to `COc1ccc(F)cc1[C@H](Cn1c(=O)n(C(C)(C)C(=O)N2CCCC2)c(=O)c2c(C)c(-n3nccn3)sc21)OCCC#N` [Compound I-195], for which the IC90 in assay [1] (setting [5]) was above 50 µg/mL; in assay [2] (setting [6]) it was 2 µg/mL (≈ 3.28 µM); in the assay with Diplodia maydis (Dm) (setting [7]), at least 2 µg/mL; in assay [3] (setting [8]) it was 2 µg/mL (≈ 3.28 µM); in the assay with Botrtyis cinerea (Bc) (setting [9]) it was 2 µg/mL (≈ 3.28 µM); in the assay on Septoria tritici (St) (setting [10]), above 50 µg/mL. For the same compound, the IC90 (with Rhizoctonia solani (Rs) (setting [11]); in assay [4] (setting [12])) was 2 µg/mL (≈ 3.28 µM) in each case.
Consider `COc1ccccc1[C@H](Cn1c(=O)n(C(C)(C)C(=O)N2CCCC2)c(=O)c2c(C)c(-n3nccn3)sc21)OCCC#N` [Compound I-196], for which the IC90 in assay [1] (setting [5]) is above 50 µg/mL; in assay [2] (setting [6]), 10 µg/mL (≈ 16.9 µM); in the assay on Diplodia maydis (Dm) (setting [7]) it was 10 µg/mL (≈ 16.9 µM); in assay [3] (setting [8]), 2 µg/mL (≈ 3.38 µM); with Botrtyis cinerea (Bc) (setting [9]) it was 2 µg/mL (≈ 3.38 µM); in the assay with Septoria tritici (St) (setting [10]), above 50 µg/mL. The results for the IC90 (in the assay with Rhizoctonia solani (Rs) (setting [11]); in assay [4] (setting [12])) were 2 µg/mL (≈ 3.38 µM) and 0.4 µg/mL (≈ 0.676 µM), respectively.
In the case of `COc1ccc(F)cc1[C@H](Cn1c(=O)n([C@@H](C)C(=O)NC(C)C)c(=O)c2c(C)c(-n3nccn3)sc21)OCCC#N` [Compound I-197], the IC90 is above 50 µg/mL in assay [1] (setting [5]); 10 µg/mL (≈ 17.1 µM) in assay [2] (setting [6]); 10 µg/mL (≈ 17.1 µM) with Diplodia maydis (Dm) (setting [7]); at least 2 µg/mL in assay [3] (setting [8]); 0.4 µg/mL (≈ 0.685 µM) in the assay on Botrtyis cinerea (Bc) (setting [9]); at least 50 µg/mL in the assay with Septoria tritici (St) (setting [10]). Also, the IC90 (in the assay on Rhizoctonia solani (Rs) (setting [11]); in assay [4] (setting [12])) was 0.4 µg/mL (≈ 0.685 µM) throughout.
For the compound `COc1ccc(F)cc1[C@H](Cn1c(=O)n([C@@H](C)C(N)=O)c(=O)c2c(C)c(-n3nccn3)sc21)OCCC#N` [Compound I-199], the IC90 in assay [1] (setting [13]) was above 50 µg/mL; in assay [2] (setting [14]), 50 µg/mL (≈ 92.3 µM); in the assay on Diplodia maydis (Dm) (setting [15]) it was 50 µg/mL (≈ 92.3 µM); in assay [3] (setting [16]), 10 µg/mL (≈ 18.5 µM); in the assay on Botrtyis cinerea (Bc) (setting [17]), 10 µg/mL (≈ 18.5 µM); in the assay with Septoria tritici (St) (setting [18]) it was above 50 µg/mL. The IC90 stood at 50 µg/mL (≈ 92.3 µM) with Rhizoctonia solani (Rs) (setting [19]) and 10 µg/mL (≈ 18.5 µM) in assay [4] (setting [20]).
On to `COc1ccc(F)cc1[C@H](Cn1c(=O)n([C@H](C)C(N)=O)c(=O)c2c(C)c(-n3nccn3)sc21)OCCC#N` [Compound I-200], for which the IC90 is above 50 µg/mL in assay [1] (setting [5]); above 50 µg/mL in assay [2] (setting [6]); above 50 µg/mL in the assay on Diplodia maydis (Dm) (setting [7]); 2 µg/mL (≈ 3.69 µM) in assay [3] (setting [8]); 2 µg/mL (≈ 3.69 µM) with Botrtyis cinerea (Bc) (setting [9]); above 50 µg/mL in the assay with Septoria tritici (St) (setting [10]). The IC90 (in the assay on Rhizoctonia solani (Rs) (setting [11]); in assay [4] (setting [12])) was 2 µg/mL (≈ 3.69 µM) in each case.
